The first assay deals with p38 MAP kinase (Homo sapiens, UniProt Q16539). The assay can be described thus: p38 MAP Kinase Assay (33P incorporation into myelin basic protein, filter plate). Format: biochemical. Conditions: Table 1; MKK6-activated p38, MBP substrate, 50 minutes. The method, then:
The activated p38 is then diluted 1:6 with assay buffer, and 20 μl mixed with 25 μl of MBP mix (300 μl 10×strength assay buffer, 300 μl of 10 mM DTT & 10 mM sodium orthovanadate, 1.7 ml H2O, 50 μCi γ^33P-ATP, 200 μl of myelin basic protein (MBP) (5 mg/ml)) and added to 96 well plates along with 5 μl of various dilutions of the test compound in DMSO (up to 10%). The reaction is allowed to proceed for 50 minutes before being stopped with an excess of ortho-phosphoric acid (30 μl at 2%).
γ^33P-ATP which remains unincorporated into the myelin basic protein is separated from phosphorylated MBP on a Millipore MAPH filter plate. The wells of the MAPH plate are wetted with 0.5% orthophosphoric acid, and then the results of the reaction are filtered with a Millipore vacuum filtration unit through the wells. Following filtration, the residue is washed twice with 200 μl of 0.5% orthophosphoric acid. Once the filters have dried, 25 μl of Microscint 20 scintillant is added, and then counted on a Packard Topcount for 30 seconds.
p38 MAP kinase, sequence (Q16539 whole entry): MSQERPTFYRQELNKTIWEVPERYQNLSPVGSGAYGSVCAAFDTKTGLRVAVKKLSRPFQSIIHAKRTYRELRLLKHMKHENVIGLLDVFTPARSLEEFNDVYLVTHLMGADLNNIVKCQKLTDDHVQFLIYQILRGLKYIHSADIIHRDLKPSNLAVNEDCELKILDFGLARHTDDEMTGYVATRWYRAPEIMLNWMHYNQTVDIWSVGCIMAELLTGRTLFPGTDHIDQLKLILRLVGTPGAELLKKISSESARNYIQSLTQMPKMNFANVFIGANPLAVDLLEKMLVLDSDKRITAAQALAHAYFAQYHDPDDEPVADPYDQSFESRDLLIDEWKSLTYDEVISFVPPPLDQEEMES
By IC50 is commonly meant the concentration that inhibits the measured activity by half. Read a high IC50 as weaker potency. In the case of `O=C(Nc1ccc(Cl)c(COc2cccnc2)c1)c1cccc(Cl)c1` [Compound 70, 3-Chloro-N-[4-chloro-3-(pyridin-3-yloxymethyl)-phenyl]-benzamide], the half-inhibitory concentration (IC50) is < 20 µM.

For `O=C(Nc1ccc(Cl)c(COc2cccnc2)c1)c1cccc(F)c1` [Compound 50, N-[4-Chloro-3-(pyridin-3-yloxymethyl)-phenyl]-3-fluoro-benzamide], the IC50 was < 200 µM. On the same count and under the same terms, then `Nc1ncccc1OCc1cc2c(cc1Cl)OCO2` [Compound 18, 2-amino-3-(2-chloro-4,5-(methylenedioxy)benzyloxy)pyridine], with < 1000 µM; and `O=C(Nc1ccccc1)Nc1ccc(Cl)c(COc2cccnc2)c1` [Compound 61, 1-[4-Chloro-3-(pyridin-3-yloxymethyl)-phenyl]-3-phenyl-urea], with < 20 µM; and `c1cncc(OCc2cccc3ccccc23)c1` [Compound 11, 3-(1-Naphthylmethyloxy)pyridine], with < 1000 µM. Still for that read-out and setting: with `O=C(Nc1ccc(F)c(COc2cccnc2)c1)c1cc(F)cc(N2CCOCC2)c1` [Compound 62, 3-Fluoro-N-[4-fluoro-3-(pyridin-3-yloxymethyl)-phenyl]-5-morpholin-4-yl-benzamide] the figure was < 2 µM; with `Nc1ccc(Cl)c(COc2cccnc2)c1` [Compound 41], < 1000 µM.

As to `O=C(Nc1cccc(COc2cccnc2)c1)c1ccccc1` [Compound 66, N-[3-(Pyridin-3-yloxymethyl)-phenyl]-benzamide], the concentration for half-maximal inhibition (IC50) was < 200 µM.

As for `O=C(Nc1ccc(Cl)c(COc2cccnc2)c1)c1ccncc1` [Compound 53, N-[4-Chloro-3-(pyridin-3-yloxymethyl)-phenyl]-isonicotinamide], the IC50 was < 200 µM. Still for that read-out and setting: then `O=C1c2ccccc2C(=O)N1c1ccc(Cl)c(COc2cccnc2)c1` [Compound 68, 2-[4-Chloro-3-(pyridin-3-yloxymethyl)-phenyl]-isoindole-1,3-dione], with < 1000 µM; and `Nc1ccncc1OCc1cccc2ccccc12` [Compound 46], with < 1000 µM. Same read-out and setting: with `O=C(Nc1ccc(Cl)c(COc2cccnc2)c1)c1ccccc1` [Compound 52, N-[4-Chloro-3-(pyridin-3-yloxymethyl)-phenyl]-benzamide] the figure was < 20 µM.

In the case of `Cc1ccc2ccccc2c1COc1cccnc1N` [Compound 30], the IC50 is < 100 µM. Still for that read-out and setting: with `Nc1ncccc1OCn1nnc2ccccc21` [Compound 37] the figure was < 1000 µM. The same measure, in the same setting: with `O=C(Nc1ccc(F)c(COc2cccnc2)c1)c1cncc(N2CCOCC2)n1` [Compound 75, 6-Morpholin-4-yl-pyrazine-2-carboxylic acid [4-fluoro-3-(pyridin-3-yloxymethyl)-phenyl]-amide] the figure was < 20 µM. Same read-out and setting: then `Nc1ncccc1OCc1ccc(Cl)cc1Cl` [Compound 15, 2-amino-3-(2,4-dichlorobenzyloxy)pyridine], with < 1000 µM; and `Nc1ncccc1OCc1cccc(C(=O)NCc2cccc3ccccc23)c1` [Compound 33], with < 1000 µM. On to `O=C1c2ccccc2CN1c1ccc(F)c(COc2cccnc2)c1` [Compound 80], for which the half-inhibitory concentration (IC50) is < 1000 µM. As to `Nc1ncccc1OCc1ccccc1CS(=O)(=O)c1ccccc1` [Compound 25], the half-maximal inhibitory concentration (IC50) is < 1000 µM. The same measure, in the same setting: with `O=S(=O)(Nc1ccc(Cl)c(COc2cccnc2)c1)c1ccccc1` [Compound 55, N-(4-Chloro-3-(pyridin-3-yloxymethyl)-phenyl]-benzenesulfonamide] the figure was < 200 µM. For `O=C1c2ccccc2C(O)N1c1ccc(Cl)c(COc2cccnc2)c1` (stereo not drawn) [Compound 73], the half-maximal inhibitory concentration (IC50) was < 200 µM. On to `Clc1ncccc1OCc1ccccc1` [Compound 10, 3-Benzyloxy-2-chloropyridine], for which the IC50 was < 2000 µM.

Staying with this assay, now noted: Table 2; MKK6-activated p38, MBP substrate, 50 minutes.
Turning to `CC(C)(C)c1cc(C(=O)Nc2ccc(F)c(COc3cnccn3)c2)n(Cc2ccc(F)cc2)n1` [Compound 136, 5-tert-Butyl-2-(4-fluoro-benzyl)-2H-pyrazole-3-carboxylic acid [4-fluoro-3-(pyrazin-2-yloxymethyl)-phenyl]-amide], the 50% inhibitory concentration (IC50) is < 20 µM. Same read-out and setting: then `Nc1ncc(OCc2ccccc2)nc1Br` [Compound 84], with < 1000 µM; and `O=C(Nc1cnc(OCc2c(Cl)cccc2Cl)cn1)N1CCOCC1` [Compound 175], with < 2 µM.

For `O=C(CC1CCOCC1)Nc1cnc(OCc2c(Cl)cccc2Cl)cn1` [Compound 173], the concentration for half-maximal inhibition (IC50) is < 200 µM. `O=C(Nc1ccc(F)c(COc2cnccn2)c1)c1ccc2ccccc2c1` [Compound 131, Naphthalene-2-carboxylic acid [4-fluoro-3-(pyrazin-2-yloxymethyl)-phenyl]-amide]: the IC50 is < 20 µM. On the same count and under the same terms, with `O=C(NCCO)c1cnc(OCc2c(Cl)cccc2Cl)cn1` [Compound 112, 5-(2,6-Dichloro-benzyloxy)-pyrazine-2-carboxylic acid (2-hydroxy-ethyl)-amide] the figure was < 1000 µM; with `Cc1cc(-n2nc(C(C)(C)C)cc2NC(=O)Nc2ccc(F)c(COc3cnccn3)c2)nc(C)n1` [Compound 157, 1-[5-tert-Butyl-2-(2,6-dimethyl-pyrimidin-4-yl)-2H-pyrazol-3-yl]-3-[4-fluoro-3-(pyrazin-2-yloxymethyl)-phenyl]-urea], < 2 µM. For the compound `OCCNc1cnc(OCc2c(Cl)cccc2Cl)cn1` [Compound 158, 2-[5-(2,6-Dichloro-benzyloxy)-pyrazin-2-ylamino]-ethanol], the IC50 was < 200 µM. The same measure, in the same setting: then `O=C(Nc1ccc(F)c(COc2cnccn2)c1)c1cccc(Oc2ccccc2)c1` [Compound 102, N-[4-Fluoro-3-(pyrazin-2-yloxymethyl)-phenyl]-3-phenoxy-benzamide], with < 2 µM; and `CC(C)(C)c1cc(NC(=O)Nc2ccc(Cl)c(COc3cnccn3)c2)[nH]n1` [Compound 95], with < 20 µM. In the case of `CC(C)(C)c1cc(NC(=O)Nc2ccc(F)c(COc3cnccn3)c2)n(-c2nc3ccccc3s2)n1` [Compound 155, 1-(2-Benzothiazol-2-yl-5-tert-butyl-2H-pyrazol-3-yl)-3-[4-fluoro-3-(pyrazin-2-yloxymethyl)-phenyl]-urea], the IC50 is < 20 µM. As for `Cc1ccc(-n2nc(C(C)(C)C)cc2NC(=O)Nc2ccc(F)c(COc3cnccn3)c2)cc1` [Compound 130, 1-(5-tert-Butyl-2-p-tolyl-2H-pyrazol-3-yl)-3-[4-fluoro-3-(pyrazin-2-yloxymethyl)-phenyl]-urea], the IC50 is < 2 µM. `Nc1cnc(OCc2c(Cl)cccc2Cl)cn1` [Compound 110]: the half-maximal inhibitory concentration (IC50) is < 200 µM. Same read-out and setting: with `O=C(Nc1ccccc1)Oc1cccc(COc2cnccn2)c1` [Compound 107, Phenyl-carbamic acid 3-(pyrazin-2-yloxymethyl)-phenyl ester] the figure was < 200 µM; with `CC(C)(C)c1cc(NC(=O)Nc2ccc(F)c(COc3cnccn3)c2)n(-c2ccc(F)cc2F)n1` [Compound 125, 1-[5-tert-Butyl-2-(2,4-difluoro-phenyl)-2H-pyrazol-3-yl]-3-[4-fluoro-3-(pyrazin-2-yloxymethyl)-phenyl]-urea], < 2 µM; with `O=C(Nc1ccc(F)c(COc2cnccn2)c1)Nc1nc(-c2ccccc2)cs1` [Compound 123, 1-[4-Fluoro-3-(pyrazin-2-yloxymethyl)-phenyl]-3-(4-phenyl-thiazol-2-yl)-urea], < 20 µM.

For `Nc1nccnc1OCc1cccc2ccccc12` [Compound 82], the half-inhibitory concentration (IC50) was < 1000 µM.

Take `O=C(Nc1ccc(F)c(COc2cnccn2)c1)Nc1n[nH]cc1-c1ccccc1` [Compound 119, 1-[4-Fluoro-3-(pyrazin-2-yloxymethyl)-phenyl]-3-(4-phenyl-1H-pyrazol-3-yl)-urea]: the IC50 was < 20 µM. On to `CNc1cnc(OCc2c(Cl)cccc2Cl)cn1` [Compound 148, [5-(2,6-Dichloro-benzyloxy)-pyrazin-2-yl]-methyl-amine], for which the half-maximal inhibitory concentration (IC50) is < 200 µM. For `C=CS(=O)(=O)Nc1cnc(OCc2c(Cl)cccc2Cl)cn1` [Compound 145], the half-maximal inhibitory concentration (IC50) was < 200 µM.

Consider `Cc1cc(C)c2nc(NC(=O)Nc3ccc(F)c(COc4cnccn4)c3)sc2c1` [Compound 116, 1-(4,6-Dimethyl-benzothiazol-2-yl)-3-[4-fluoro-3-(pyrazin-2-yloxymethyl)-phenyl]-urea], for which the IC50 was < 1000 µM. Turning to `O=C(Nc1ccc(F)c(COc2cnccn2)c1)c1ccc(=O)n(Cc2ccccc2)c1` [Compound 147, 1-Benzyl-6-oxo-1,6-dihydro-pyridine-3-carboxylic acid [4-fluoro-3-(pyrazin-2-yloxymethyl)-phenyl]-amide], the IC50 is < 20 µM. For `O=C(Nc1ccc(F)c(COc2cnccn2)c1)c1cc(N2CCOCC2)nc(N2CCOCC2)n1` [Compound 150, 2,6-Di-morpholin-4-yl-pyrimidine-4-carboxylic acid [4-fluoro-3-(pyrazin-2-yloxymethyl)-phenyl]-amide], the 50% inhibitory concentration (IC50) is < 2 µM. Consider `CC(C)(Cc1ccncc1)NC(=O)c1cnc(OCc2c(Cl)cccc2Cl)cn1` [Compound 139, 5-(2,6-Dichloro-benzyloxy)-pyrazine-2-carboxylic acid (1,1-dimethyl-2-pyridin-4-yl-ethyl)-amide], for which the IC50 is < 20 µM. On the same count and under the same terms, then `O=C(Nc1ccc(F)c(COc2cnccn2)c1)Nc1cc(-c2ccc(Cl)cc2)nn1-c1ccccc1` [Compound 128, 1-[5-(4-Chloro-phenyl)-2-phenyl-2H-pyrazol-3-yl]-3-[4-fluoro-3-(pyrazin-2-yloxymethyl)-phenyl]-urea], with < 2 µM.

For `Nc1cccc(COc2cncc(Cl)n2)c1` [Compound 85], the IC50 was < 1000 µM.
